From article PMC9843824 (Neuropharmacology, 2022)
Several values for one entry are separate records, joined by “and”; a condition that tells them apart may be missing. Equal entries are not always repeated. Where two headings read alike, the source gives them in different places.

Columns and labels:
[1] = physchem; type: physicochemical
[2] = in vitro; type: in vitro ADME; settings: rat, plasma
[3] = type: in vivo; settings: rat; for Oral availability / bioavailability: gavage vs i.p.
[4] = tested on: KA rat model of TLE; settings: for Neuroprotection, FJB staining in hippocampus at 3 d: 10 mg/kg i.p. 1 h and 4 h after SE
[5] = tested on: Ca2+-activated K+ channels; settings: ref Sankaranarayanan et al., 2009; cited from earlier work
[6] = tested on: neural activity regulated, high affinity MeAIB/Gln transport in mature rat hippocampal neurons; type: cell-based; settings: for Result of screen 2 (block of MeAIB transport) / Block of activity regulated MeAIB transport, screen 2: compound 10 μM, 14C-MeAIB 5.4 μM; for IC50: read-out: IC50, inhibition of Ca2+-regulated (spontaneous, activity regulated) MeAIB transport, hippocampal neurons DIV 19–21, 2 min preincubation, 37 °C; for Mode of inhibition of Ca2+-regulated MeAIB transport: Michaelis-Menten kinetic analysis; for Reduction of initial velocity (V, Vmax) of MeAIB transport / Vmax of Ca2+-regulated MeAIB transport in presence of inhibitor: inhibitor 1 μM; for Vmax of Ca2+-regulated MeAIB transport in presence of inhibitor: control 107 ± 9
[7] = biological target: NaV1.6 (Homo sapiens, UniProt Q9UQD0); assay: Whole-cell patch-clamp, HEK cells transiently transfected with NaV1.6; type: cell-based; settings: IC50 NaV1.6, holding potential −80 mV, inter-pulse interval 10 s (0.1 Hz)
Chain of NaV1.6 (Q9UQD0 whole entry): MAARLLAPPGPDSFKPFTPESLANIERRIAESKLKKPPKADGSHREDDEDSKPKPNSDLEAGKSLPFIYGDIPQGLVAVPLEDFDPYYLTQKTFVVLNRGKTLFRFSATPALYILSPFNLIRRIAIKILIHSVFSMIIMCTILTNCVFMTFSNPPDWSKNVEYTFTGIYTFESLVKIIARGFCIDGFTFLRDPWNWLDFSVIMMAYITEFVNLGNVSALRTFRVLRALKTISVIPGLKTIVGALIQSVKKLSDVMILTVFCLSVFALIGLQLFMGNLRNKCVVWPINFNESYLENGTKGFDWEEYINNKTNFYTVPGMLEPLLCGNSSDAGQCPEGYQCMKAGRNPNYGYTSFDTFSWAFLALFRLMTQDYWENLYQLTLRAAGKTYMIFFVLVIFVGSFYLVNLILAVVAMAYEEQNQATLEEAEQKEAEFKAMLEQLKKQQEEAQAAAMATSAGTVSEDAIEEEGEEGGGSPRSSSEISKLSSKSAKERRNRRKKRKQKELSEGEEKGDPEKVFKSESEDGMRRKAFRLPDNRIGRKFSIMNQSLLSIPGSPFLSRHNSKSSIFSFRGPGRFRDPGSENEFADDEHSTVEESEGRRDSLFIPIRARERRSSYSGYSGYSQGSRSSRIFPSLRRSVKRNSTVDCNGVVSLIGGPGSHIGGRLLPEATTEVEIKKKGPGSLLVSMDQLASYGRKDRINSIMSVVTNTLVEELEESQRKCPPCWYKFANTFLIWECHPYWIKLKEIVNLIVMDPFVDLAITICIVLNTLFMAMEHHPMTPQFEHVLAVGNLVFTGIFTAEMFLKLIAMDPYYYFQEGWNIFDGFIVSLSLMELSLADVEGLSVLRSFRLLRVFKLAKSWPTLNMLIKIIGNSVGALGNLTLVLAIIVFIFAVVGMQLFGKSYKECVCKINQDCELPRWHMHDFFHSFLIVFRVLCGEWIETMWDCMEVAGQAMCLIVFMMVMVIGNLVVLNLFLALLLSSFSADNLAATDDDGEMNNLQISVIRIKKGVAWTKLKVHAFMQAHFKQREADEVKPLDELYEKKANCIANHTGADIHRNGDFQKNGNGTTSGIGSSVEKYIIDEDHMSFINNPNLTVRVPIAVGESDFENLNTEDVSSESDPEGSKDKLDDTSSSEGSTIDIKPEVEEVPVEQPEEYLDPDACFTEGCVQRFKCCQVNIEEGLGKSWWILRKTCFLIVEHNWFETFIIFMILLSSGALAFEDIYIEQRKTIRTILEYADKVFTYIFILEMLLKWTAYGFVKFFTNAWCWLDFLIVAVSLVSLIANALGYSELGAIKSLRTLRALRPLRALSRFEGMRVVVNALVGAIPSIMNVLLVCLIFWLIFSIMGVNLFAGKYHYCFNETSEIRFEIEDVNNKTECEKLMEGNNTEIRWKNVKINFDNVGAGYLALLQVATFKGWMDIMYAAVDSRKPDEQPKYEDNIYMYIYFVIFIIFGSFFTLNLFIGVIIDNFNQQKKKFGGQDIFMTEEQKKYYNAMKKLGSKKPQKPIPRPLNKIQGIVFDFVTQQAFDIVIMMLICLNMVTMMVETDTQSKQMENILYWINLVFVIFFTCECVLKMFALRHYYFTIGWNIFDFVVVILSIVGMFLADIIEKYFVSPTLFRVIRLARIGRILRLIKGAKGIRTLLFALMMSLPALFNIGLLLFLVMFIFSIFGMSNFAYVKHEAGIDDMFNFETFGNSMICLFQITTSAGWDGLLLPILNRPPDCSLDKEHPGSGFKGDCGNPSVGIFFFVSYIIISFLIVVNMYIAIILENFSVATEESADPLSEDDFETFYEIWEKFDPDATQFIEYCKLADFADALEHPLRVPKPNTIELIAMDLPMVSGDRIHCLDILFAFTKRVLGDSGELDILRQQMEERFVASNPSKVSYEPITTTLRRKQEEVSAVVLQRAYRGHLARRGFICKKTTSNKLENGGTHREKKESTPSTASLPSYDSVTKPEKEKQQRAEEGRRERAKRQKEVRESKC

[8] = biological target: NaV1.2 (Mus musculus, UniProt B1AWN6); type: cell-based
Chain of NaV1.2 (B1AWN6 whole entry): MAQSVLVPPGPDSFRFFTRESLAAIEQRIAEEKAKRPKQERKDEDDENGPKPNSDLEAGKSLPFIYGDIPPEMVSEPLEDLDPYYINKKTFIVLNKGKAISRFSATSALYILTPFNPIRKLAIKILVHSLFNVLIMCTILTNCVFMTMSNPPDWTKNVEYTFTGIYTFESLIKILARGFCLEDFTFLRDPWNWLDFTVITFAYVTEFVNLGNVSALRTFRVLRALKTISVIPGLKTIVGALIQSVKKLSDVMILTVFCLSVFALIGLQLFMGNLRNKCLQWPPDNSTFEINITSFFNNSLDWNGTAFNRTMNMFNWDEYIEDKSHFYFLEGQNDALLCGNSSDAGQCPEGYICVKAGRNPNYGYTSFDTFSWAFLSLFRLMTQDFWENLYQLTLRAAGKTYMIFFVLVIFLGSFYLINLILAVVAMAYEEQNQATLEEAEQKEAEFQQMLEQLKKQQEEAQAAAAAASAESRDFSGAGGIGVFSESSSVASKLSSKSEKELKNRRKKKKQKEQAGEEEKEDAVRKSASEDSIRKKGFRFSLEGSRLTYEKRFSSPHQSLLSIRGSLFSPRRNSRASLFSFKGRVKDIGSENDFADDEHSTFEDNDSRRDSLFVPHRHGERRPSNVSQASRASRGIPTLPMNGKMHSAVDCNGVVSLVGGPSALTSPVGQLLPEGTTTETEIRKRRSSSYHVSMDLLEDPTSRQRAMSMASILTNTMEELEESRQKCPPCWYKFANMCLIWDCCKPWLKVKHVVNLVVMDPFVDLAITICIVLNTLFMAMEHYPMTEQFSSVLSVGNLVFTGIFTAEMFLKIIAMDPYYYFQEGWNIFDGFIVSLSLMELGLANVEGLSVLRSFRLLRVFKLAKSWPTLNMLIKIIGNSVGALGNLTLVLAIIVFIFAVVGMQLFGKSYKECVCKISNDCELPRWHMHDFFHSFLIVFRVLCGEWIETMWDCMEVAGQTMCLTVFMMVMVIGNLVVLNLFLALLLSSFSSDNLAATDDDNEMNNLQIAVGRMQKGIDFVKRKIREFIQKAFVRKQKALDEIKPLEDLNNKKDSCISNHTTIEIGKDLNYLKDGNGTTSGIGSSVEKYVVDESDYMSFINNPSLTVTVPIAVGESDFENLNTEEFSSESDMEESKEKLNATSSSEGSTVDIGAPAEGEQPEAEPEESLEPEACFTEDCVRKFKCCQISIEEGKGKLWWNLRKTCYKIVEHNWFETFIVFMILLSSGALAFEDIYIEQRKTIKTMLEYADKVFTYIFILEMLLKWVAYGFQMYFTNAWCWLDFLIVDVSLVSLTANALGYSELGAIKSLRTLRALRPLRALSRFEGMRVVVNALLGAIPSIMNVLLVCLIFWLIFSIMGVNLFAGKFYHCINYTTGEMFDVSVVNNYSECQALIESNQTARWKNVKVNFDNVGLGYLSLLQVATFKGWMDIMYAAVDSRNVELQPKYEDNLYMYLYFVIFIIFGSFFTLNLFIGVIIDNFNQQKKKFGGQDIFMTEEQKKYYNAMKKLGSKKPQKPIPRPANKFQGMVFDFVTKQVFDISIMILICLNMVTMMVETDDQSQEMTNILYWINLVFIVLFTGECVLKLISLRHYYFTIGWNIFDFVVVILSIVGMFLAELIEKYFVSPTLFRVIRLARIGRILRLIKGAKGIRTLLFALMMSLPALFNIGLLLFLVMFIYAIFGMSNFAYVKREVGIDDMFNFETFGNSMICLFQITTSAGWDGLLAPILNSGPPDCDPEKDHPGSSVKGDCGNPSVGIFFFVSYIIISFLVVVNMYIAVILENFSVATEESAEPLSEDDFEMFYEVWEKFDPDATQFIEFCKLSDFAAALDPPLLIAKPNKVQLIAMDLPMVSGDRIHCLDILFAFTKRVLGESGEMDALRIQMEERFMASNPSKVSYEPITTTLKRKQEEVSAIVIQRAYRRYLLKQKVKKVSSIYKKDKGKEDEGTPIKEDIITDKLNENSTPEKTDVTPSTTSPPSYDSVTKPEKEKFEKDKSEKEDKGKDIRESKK

[9] = tested on: Ca2+-independent (low affinity) MeAIB transport in mature rat hippocampal neurons; type: cell-based; settings: at 15 min of uptake
[10] = 30 mg/kg i.p. 1 h and 4 h after SE, then once/day for 2 d

SMILES: Nc1nc(-c2ccc3ccccc3c2)c(F)s1 [SKA-382, 5-Fluoro-4-(naphthalen-2-yl)thiazol-2-amine]
- logP [1]: 4.14

SMILES: Nc1nc(-c2ccc(OC(F)(F)F)cc2)cs1 [SKA-41, 4-(4-(Trifluoromethoxy)phenyl)thiazol-2-amine]
- logP [1]: 4.58
- fraction unbound [2]: 0.043
- Brain penetration [3]: excellent
- Oral availability / bioavailability [3]: excellent
- Neuroprotection, FJB staining in hippocampus at 3 d ([4]; then once/day for 2 d): neuro-protective, but not as protective as riluzole
- Activity on Ca2+-activated K+ channels [5]: inactive

SMILES: Cc1ccc(-c2csc(N)n2)c2ccccc12 [SKA-190, 4-(4-Methylnaphthalen-1-yl)thiazol-2-amine]
- Result of screen 2 (block of MeAIB transport) [6]: active
- logP [1]: 4.53

SMILES: Nc1nc(-c2cccc3ccccc23)cs1 [SKA-75, 4-(Naphthalen-1-yl)thiazol-2-amine]
- Block of activity regulated MeAIB transport, screen 2 [6]: ~ 50%
- IC50 ([6]; 15 min uptake): 4.5 ± 0.45 µM
- logP [1]: 4.05

SMILES: COc1ccc(CCN(C)CCCC(C#N)(c2ccc(OC)c(OC)c2)C(C)C)cc1OC (stereo not drawn) [verapamil, reference compound]
- Spontaneous MeAIB transport after 15 min in presence of inhibitor [6]: 119 ± 9 pmol/well

SMILES: Nc1nc(-c2cccc3ccccc23)c(Cl)s1 [SKA-378, 5-Chloro-4-(naphthalen-1-yl)thiazol-2-amine]
- Mode of inhibition of Ca2+-regulated MeAIB transport [6]: noncompetitive
- Reduction of initial velocity (V, Vmax) of MeAIB transport [6]: ~ 50%
- Vmax of Ca2+-regulated MeAIB transport in presence of inhibitor [6]: 73 ± 6 pmol/min
- IC50 ([6]; 15 min uptake): 1.1 ± 0.17 µM
- IC50 [7]: 28 µM and ~28 µM
- logP [1]: 4.2
- fraction unbound [2]: 0.008
- Brain penetration [3]: excellent
- Neuroprotection, FJB staining in hippocampus at 3 d ([4]; then once/day for 2 d): neuro-protective, but not as protective as riluzole
- FJB staining in hippocampal CA1-4 neurons at 3 d [4, 10]: minimal
- NeuN fluorescence in pyramidal neuron subfields at 3 d [4, 10]: largely prevents the diminished NeuN fluorescence
- Rats still exhibiting maximal stage 5 seizures (Racine scale) ([4]; 30 mg/kg i.p. given before KA (pretreatment)): > 50%
- FJB staining, hippocampal CA pyramidal neuron layers at 3 d ([4]; 30 mg/kg i.p. pretreatment): blocks neuronal hippocampal injury
- NeuN fluorescent intensity in CA4, CA3, CA1 at 3 d ([4]; 30 mg/kg i.p. pretreatment): nearly identical to sham levels
- Seizure severity vs non-treated KA-injected rats ([4]; 30 mg/kg i.p. pretreatment): did not show a significant reduction in seizure severity
- Duration of KA-induced SE events ([4]; 30 mg/kg post-SE): not affected

SMILES: Nc1nc(-c2ccc3ccccc3c2)cs1 [SKA-76, 4-(Naphthalen-2-yl)thiazol-2-amine]
- Block of activity regulated MeAIB transport, screen 2 [6]: ~ 50%
- IC50 ([6]; 15 min uptake): 6.2 ± 0.9 µM
- logP [1]: 4.05

SMILES: Nc1nc(-c2ccc3ccccc3c2)c(Br)s1 [SKA-220, 5-Bromo-4-(naphthalen-2-yl)thiazol-2-amine]
- Result of screen 2 (block of MeAIB transport) [6]: active
- logP [1]: 4.42

SMILES: Nc1nc2ccc(OC(F)(F)F)cc2s1 [Riluzole, reference compound]
- Mode of inhibition of Ca2+-regulated MeAIB transport [6]: noncompetitive
- Reduction of initial velocity (V, Vmax) of MeAIB transport [6]: ~ 50%
- Vmax of Ca2+-regulated MeAIB transport in presence of inhibitor [6]: 54 ± 1 pmol/min
- IC50 ([6]; 15 min uptake): 0.86 ± 0.02 µM
- Spontaneous MeAIB transport after 15 min in presence of inhibitor ([6]; riluzole 10 μM, 23.4 μM 14C-MeAIB, total without inhibitor 619±21): 133 ± 8 pmol/well
- Frequency dependence of NaV1.2 block [8]: not frequency dependent
- IC50 [7]: 115 ± 2 µM
- Neuroprotection, FJB staining in hippocampus at 3 d ([4]; then once/day for 2 d): prevents acute neural injury altogether
- Behaviour of rats after treatment ([4]; 10 mg/kg post-SE): relatively immobile/sedated
- Duration of KA-induced SE events ([4]; 10 mg/kg post-SE, untreated 4–6 h): less than 2 h
- Behaviour of rats at higher doses ([4]; e.g., 30 mg/kg): render rats immobile and unresponsive
- Neural injury in hippocampal limbic areas ([4]; post-treated): largely prevented neural injury

SMILES: Nc1nc(-c2ccc(OC(F)(F)F)cc2)c(Cl)s1 [SKA-376, 5-Chloro-4-(4-(trifluoromethoxy)phenyl)thiazol-2-amine]
- IC50 ([6]; 15 min uptake): 4.3 ± 0.4 µM
- logP [1]: 4.53
- fraction unbound [2]: 0.015
- Hippocampal neural injury by FJB staining and NeuN fluorescence at 3 d [4, 10]: did not significantly reduce neural injury

SMILES: CNC(C)(C)C(=O)O [MeAIB, methylaminoisobutryic acid, reference compound]
- Vmax of Ca2+-dependent MeAIB transport ([6]; at 15 min of uptake): 1605 ± 139 pmol/well
- Km ([6]; read-out: Km for spontaneous Ca2+-dependent MeAIB transport, Michaelis-Menten analysis, 15 min uptake): 61 ± 5 µM
- Vmax of Ca2+-independent MeAIB transport [9]: 1793 ± 131 pmol/well

SMILES: Cc1ccc(-c2nc(N)sc2Cl)c2ccccc12 [SKA-377, 5-Chloro-4-(4-methylnaphthalen-1-yl)thiazol-2-amine]
- logP [1]: 4.91
- fraction unbound [2]: 0.01
- Oral availability / bioavailability [3]: excellent oral availability
- Neuroprotection, FJB staining in hippocampus at 3 d ([4]; then once/day for 2 d): neuro-protective, but not as protective as riluzole
- Hippocampal neural injury by FJB staining and NeuN fluorescence at 3 d [4, 10]: neuroprotective

SMILES: Nc1nc(-c2cccc3ccccc23)c(Br)s1 [SKA-219, 5-Bromo-4-(naphthalen-1-yl)thiazol-2-amine]
- Block of activity regulated MeAIB transport, screen 2 [6]: > 95%
- logP [1]: 4.76
- fraction unbound [2]: 0.005

SMILES: Nc1nc(-c2ccc3ccccc3c2)c(Cl)s1 [SKA-379, 5-Chloro-4-(naphthalen-2-yl)thiazol-2-amine]
- IC50 ([6]; 15 min uptake): 6.5 ± 0.25 µM
- logP [1]: 4.42
- Neuroprotection, FJB staining in hippocampus at 3 d ([4]; then once/day for 2 d): neuro-protective, but not as protective as riluzole
- Hippocampal neural injury by FJB staining and NeuN fluorescence at 3 d [4, 10]: neuroprotective

SMILES: Cc1ccc(-c2nc(N)sc2Br)c2ccccc12 [SKA-375, 5-Bromo-4-(4-methylnaphthalen-1-yl)thiazol-2-amine]
- logP [1]: 5.25
